Consider nine molecules from PubChem BioAssay (NCI).

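How tested: cells in 96-well plates exposed to compound for 48 hours at five concentrations. GI50 marks 50% less growth. TGI marks complete inhibition of growth.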

One test has as its system TK-10 renal. Description: growth of human tumour cells (NCI), 48 h.
`C=C1C(=O)OC2/C=C(\C(=O)O)CC/C=C(\C)CC(OC(=O)/C=C(\C)CC)C12` (centres undefined): the TGI was > 100 µM.

Turning to `O=C(c1ccccc1)c1ccc2n[se]nc2c1`, the TGI was > 100 µM.

The molecule `CC(=O)C(C(c1ccccc1)N1CCOCC1)N1CCOCC1` (centres undefined) returned a TGI of 53.7 µM.

As to `CCOP(=Nc1ccc(N(C)C)cc1)(OCC)OCC`, the TGI was > 100 µM.

For `CCCC(C)c1ccc(OCCCCCCN2CCNCC2)cc1` (centres undefined), the GI50 was 1.8 µM and the TGI amounted to 3.47 µM.

For the molecule `CCC1C[N+]23CCc4c([nH]c5ccccc45)C2CC1CC3` (centres undefined), the TGI is > 100 µM.

For the molecule `Cc1ccc(S(=O)(=O)Nc2cccc3c(=O)[nH]cnc23)cc1`, the TGI was > 100 µM.

A further test relates to K-562 leukemia. As to the kind of experiment: growth of human tumour cells (NCI), 48 h.
For the molecule `C=C1C(=O)OC2/C=C(\C(=O)O)CC/C=C(\C)CC(OC(=O)/C=C(\C)CC)C12` (centres undefined), the TGI was > 100 µM.

Regarding `O=C(c1ccccc1)c1ccc2n[se]nc2c1`, the TGI was > 100 µM.

In the case of `CC(=O)C(C(c1ccccc1)N1CCOCC1)N1CCOCC1` (centres undefined), the TGI is > 100 µM.

On to `CCOP(=Nc1ccc(N(C)C)cc1)(OCC)OCC`, for which the TGI is > 100 µM.

Take `CCCC(C)c1ccc(OCCCCCCN2CCNCC2)cc1` (centres undefined): the GI50 was 1.51 µM and the TGI worked out at 3.97 µM.

Turning to `CCC1C[N+]23CCc4c([nH]c5ccccc45)C2CC1CC3` (centres undefined), the TGI was > 100 µM.

Take `CC1=C2C(O)C(C(C)C(=O)N(C)C)CCC2(C)C=CC1=O` (centres undefined): the TGI was > 100 µM.

With `Cc1ccc(S(=O)(=O)Nc2cccc3c(=O)[nH]cnc23)cc1`, the TGI was > 100 µM.

Turning to `O=C1C=C(C2OC(CO)C(O)C2O)C(=O)N1` (centres undefined), the TGI was > 100 µM.

The subject of the next test is SNB-75 CNS. As to the kind of experiment: growth of human tumour cells (NCI), 48 h.
Molecule `C=C1C(=O)OC2/C=C(\C(=O)O)CC/C=C(\C)CC(OC(=O)/C=C(\C)CC)C12` (centres undefined) gave a TGI of 47.6 µM.

Regarding `O=C(c1ccccc1)c1ccc2n[se]nc2c1`, the TGI was > 100 µM.

As to `CC(=O)C(C(c1ccccc1)N1CCOCC1)N1CCOCC1` (centres undefined), the TGI is > 100 µM.

Take `CCOP(=Nc1ccc(N(C)C)cc1)(OCC)OCC`: the TGI was > 100 µM.

`CCCC(C)c1ccc(OCCCCCCN2CCNCC2)cc1` (centres undefined): the GI50 is 1.41 µM and the TGI is 3.06 µM.

As to `CCC1C[N+]23CCc4c([nH]c5ccccc45)C2CC1CC3` (centres undefined), the TGI was > 100 µM.

Regarding `CC1=C2C(O)C(C(C)C(=O)N(C)C)CCC2(C)C=CC1=O` (centres undefined), the TGI was > 100 µM.

For `Cc1ccc(S(=O)(=O)Nc2cccc3c(=O)[nH]cnc23)cc1`, the TGI was > 100 µM.

As for `O=C1C=C(C2OC(CO)C(O)C2O)C(=O)N1` (centres undefined), the TGI is > 100 µM.

Another test relates to HOP-92 NSCLC. Description: growth of human tumour cells (NCI), 48 h.
Take `C=C1C(=O)OC2/C=C(\C(=O)O)CC/C=C(\C)CC(OC(=O)/C=C(\C)CC)C12` (centres undefined): the TGI is 36.8 µM.

With `CC(=O)C(C(c1ccccc1)N1CCOCC1)N1CCOCC1` (centres undefined), the TGI was > 100 µM.

Turning to `CCOP(=Nc1ccc(N(C)C)cc1)(OCC)OCC`, the TGI is > 100 µM.

With `CCCC(C)c1ccc(OCCCCCCN2CCNCC2)cc1` (centres undefined), the GI50 is 1.54 µM and the TGI worked out at 6.7 µM.

Take `CCC1C[N+]23CCc4c([nH]c5ccccc45)C2CC1CC3` (centres undefined): the TGI is > 100 µM.

For the molecule `CC1=C2C(O)C(C(C)C(=O)N(C)C)CCC2(C)C=CC1=O` (centres undefined), the TGI was > 100 µM.

Consider `Cc1ccc(S(=O)(=O)Nc2cccc3c(=O)[nH]cnc23)cc1`, for which the TGI was > 100 µM.

For the molecule `O=C1C=C(C2OC(CO)C(O)C2O)C(=O)N1` (centres undefined), the TGI was > 100 µM.

In the next test the test system is SNB-19 CNS. As to the kind of experiment: growth of human tumour cells (NCI), 48 h.
Regarding `C=C1C(=O)OC2/C=C(\C(=O)O)CC/C=C(\C)CC(OC(=O)/C=C(\C)CC)C12` (centres undefined), the TGI was found to be 33.5 µM.

With `O=C(c1ccccc1)c1ccc2n[se]nc2c1`, the TGI was > 100 µM.

`CC(=O)C(C(c1ccccc1)N1CCOCC1)N1CCOCC1` (centres undefined): the TGI is > 100 µM.

`CCOP(=Nc1ccc(N(C)C)cc1)(OCC)OCC`: the TGI was > 100 µM.

Consider `CCCC(C)c1ccc(OCCCCCCN2CCNCC2)cc1` (centres undefined), for which the GI50 was 3.2 µM and the TGI came out at 13.6 µM.

In the case of `CC1=C2C(O)C(C(C)C(=O)N(C)C)CCC2(C)C=CC1=O` (centres undefined), the TGI is > 100 µM.

As to `Cc1ccc(S(=O)(=O)Nc2cccc3c(=O)[nH]cnc23)cc1`, the TGI is > 100 µM.

`O=C1C=C(C2OC(CO)C(O)C2O)C(=O)N1` (centres undefined): the TGI was > 100 µM.

The subject of a further test is OVCAR-4 ovarian. Description: growth of human tumour cells (NCI), 48 h.
`C=C1C(=O)OC2/C=C(\C(=O)O)CC/C=C(\C)CC(OC(=O)/C=C(\C)CC)C12` (centres undefined) came in with a TGI of 45.1 µM.

As to `O=C(c1ccccc1)c1ccc2n[se]nc2c1`, the TGI is > 100 µM.

For `CC(=O)C(C(c1ccccc1)N1CCOCC1)N1CCOCC1` (centres undefined), the TGI is > 100 µM.

With `CCOP(=Nc1ccc(N(C)C)cc1)(OCC)OCC`, the TGI was > 100 µM.

As for `CCC1C[N+]23CCc4c([nH]c5ccccc45)C2CC1CC3` (centres undefined), the TGI was > 100 µM.

`CC1=C2C(O)C(C(C)C(=O)N(C)C)CCC2(C)C=CC1=O` (centres undefined): the TGI is > 100 µM.

As to `Cc1ccc(S(=O)(=O)Nc2cccc3c(=O)[nH]cnc23)cc1`, the TGI was > 100 µM.

As for `O=C1C=C(C2OC(CO)C(O)C2O)C(=O)N1` (centres undefined), the TGI is > 100 µM.

For the next test, the system named is SW-620 colon. Description: growth of human tumour cells (NCI), 48 h.
Consider `C=C1C(=O)OC2/C=C(\C(=O)O)CC/C=C(\C)CC(OC(=O)/C=C(\C)CC)C12` (centres undefined), for which the TGI was determined as 31.3 µM.

As to `O=C(c1ccccc1)c1ccc2n[se]nc2c1`, the TGI is > 100 µM.

For the molecule `CC(=O)C(C(c1ccccc1)N1CCOCC1)N1CCOCC1` (centres undefined), the TGI was > 100 µM.

As to `CCCC(C)c1ccc(OCCCCCCN2CCNCC2)cc1` (centres undefined), the GI50 was 1.72 µM and the TGI worked out at 3.57 µM.

Consider `CCC1C[N+]23CCc4c([nH]c5ccccc45)C2CC1CC3` (centres undefined), for which the TGI was > 100 µM.

Consider `CC1=C2C(O)C(C(C)C(=O)N(C)C)CCC2(C)C=CC1=O` (centres undefined), for which the TGI was > 100 µM.

`Cc1ccc(S(=O)(=O)Nc2cccc3c(=O)[nH]cnc23)cc1`: the TGI is > 100 µM.

Consider `O=C1C=C(C2OC(CO)C(O)C2O)C(=O)N1` (centres undefined), for which the TGI was > 100 µM.

A further test has as its system NCI-H460 lung. As to the kind of experiment: growth of human tumour cells (NCI), 48 h.
Molecule `C=C1C(=O)OC2/C=C(\C(=O)O)CC/C=C(\C)CC(OC(=O)/C=C(\C)CC)C12` (centres undefined) had a TGI of 30.7 µM.

With `CC(=O)C(C(c1ccccc1)N1CCOCC1)N1CCOCC1` (centres undefined), the TGI came out at 36.3 µM.

As for `CCOP(=Nc1ccc(N(C)C)cc1)(OCC)OCC`, the TGI was > 100 µM.

Regarding `CCCC(C)c1ccc(OCCCCCCN2CCNCC2)cc1` (centres undefined), the GI50 was 1.65 µM and the TGI came to 3.39 µM.

Take `CCC1C[N+]23CCc4c([nH]c5ccccc45)C2CC1CC3` (centres undefined): the TGI was > 100 µM.

`CC1=C2C(O)C(C(C)C(=O)N(C)C)CCC2(C)C=CC1=O` (centres undefined): the TGI is > 100 µM.

`Cc1ccc(S(=O)(=O)Nc2cccc3c(=O)[nH]cnc23)cc1`: the TGI is > 100 µM.

Turning to `O=C1C=C(C2OC(CO)C(O)C2O)C(=O)N1` (centres undefined), the TGI was > 100 µM.

The test system of a further test is HT29 colon. Description: growth of human tumour cells (NCI), 48 h.
For `C=C1C(=O)OC2/C=C(\C(=O)O)CC/C=C(\C)CC(OC(=O)/C=C(\C)CC)C12` (centres undefined), the TGI is 30.1 µM.

On to `O=C(c1ccccc1)c1ccc2n[se]nc2c1`, for which the TGI is > 100 µM.

Regarding `CC(=O)C(C(c1ccccc1)N1CCOCC1)N1CCOCC1` (centres undefined), the TGI was > 100 µM.

`CCCC(C)c1ccc(OCCCCCCN2CCNCC2)cc1` (centres undefined): the GI50 was 1.66 µM and the TGI came to 3.74 µM.

On to `CCC1C[N+]23CCc4c([nH]c5ccccc45)C2CC1CC3` (centres undefined), for which the TGI is > 100 µM.

Consider `CC1=C2C(O)C(C(C)C(=O)N(C)C)CCC2(C)C=CC1=O` (centres undefined), for which the TGI is > 100 µM.

Regarding `Cc1ccc(S(=O)(=O)Nc2cccc3c(=O)[nH]cnc23)cc1`, the TGI is > 100 µM.

Consider `O=C1C=C(C2OC(CO)C(O)C2O)C(=O)N1` (centres undefined), for which the TGI is > 100 µM.

For another test, the system named is HL-60(TB) leukemia. Description: growth of human tumour cells (NCI), 48 h.
Take `C=C1C(=O)OC2/C=C(\C(=O)O)CC/C=C(\C)CC(OC(=O)/C=C(\C)CC)C12` (centres undefined): the TGI is > 100 µM.

In turn, `O=C(c1ccccc1)c1ccc2n[se]nc2c1` yielded a TGI of 25.9 µM.

On to `CC(=O)C(C(c1ccccc1)N1CCOCC1)N1CCOCC1` (centres undefined), for which the TGI is > 100 µM.

As for `CCCC(C)c1ccc(OCCCCCCN2CCNCC2)cc1` (centres undefined), the GI50 is 1.75 µM and the TGI was 3.54 µM.

Take `CC1=C2C(O)C(C(C)C(=O)N(C)C)CCC2(C)C=CC1=O` (centres undefined): the TGI is > 100 µM.

Turning to `Cc1ccc(S(=O)(=O)Nc2cccc3c(=O)[nH]cnc23)cc1`, the TGI is > 100 µM.

Turning to `O=C1C=C(C2OC(CO)C(O)C2O)C(=O)N1` (centres undefined), the TGI is > 100 µM.
